Measured values taken from patent US20250154163A1, “Pyrimidinone-Containing 17-Beta-Hydroxysteroid Dehydrogenase Type 13 Inhibitors” (ENANTA PHARMACEUTICALS, INC., priority 2023, published 2025).

Experiments:
[1] = biological target: T1, Recombinant human 17β-HSD13 (Homo sapiens, UniProt Q7Z5P4); experiment: 17β-HSD13 rapid-fire mass spectrometry assay (RF/MS assay); format: biochemical; conditions: inhibition of 17β-HSD13, RF/MS assay; HSD17B13 80 nM, LTB4 10 μM, NAD+ 0.5 mM, RT 3 h
T1 construct: host or cells: Sf9 insect cells
T1 sequence (Q7Z5P4 20-300): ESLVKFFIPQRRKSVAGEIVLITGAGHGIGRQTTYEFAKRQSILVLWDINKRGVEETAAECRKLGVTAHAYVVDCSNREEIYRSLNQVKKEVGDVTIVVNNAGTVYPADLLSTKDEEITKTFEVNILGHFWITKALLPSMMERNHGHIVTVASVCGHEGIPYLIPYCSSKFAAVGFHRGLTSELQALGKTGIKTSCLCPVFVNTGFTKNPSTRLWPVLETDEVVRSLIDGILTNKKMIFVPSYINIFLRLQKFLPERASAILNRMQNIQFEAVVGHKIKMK
How it was run: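 Purified recombinant human 17β-HSD13 (sf9-expressed, 80 nM) incubated with compound (0–100 μM), 10 μM LTB4 and 0.5 mM NAD+ in 20 mM Tris pH 7.5, 0.005% BSA, 0.01% Tween-20, 3 h at RT. 12-oxo-LTB4 formation quantified by RapidFire MS/MS; percent conversion normalized to controls, IC50 from variable-slope fit, duplicates.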

[2] = test system: human precision cut lung slices from a normal donor treated with fibrotic cocktail; experiment: Human precision cut lung slice (PCLS) culture, normal donor treated with fibrotic cocktail; format: cell-based; conditions: normal donor PCLS treated 8 days with pro-fibrotic cocktail (FC); FIG. 2a, FIG. 3
Method: Human PCLS were generated from lung explants of patients with pulmonary fibrosis (donor ID #221028) or normal donor (donor ID #220730). Cryopreserved hPCLSs were obtained from Institute for In Vitro Sciences (IIVS) and maintained with air-liquid interface culture approach under 37° C., 5% CO2 and 95% humidity. hPCLS were cultured in DMEM-F12 (Invitrogen, Cat No. 11330032) containing 0.2% primocin (Invivogen, Cat No. ant-pm-1) and 1% insulin-transferrin-selenium (ITS-G; Invitrogen, Cat No. 41400045), after initial acclimation in acclimation media, including culture media supplemented with 1% antibiotic antimycotic solution (Invitrogen, Cat No. 15240062), 2 mM Hydrocortisone (Millipore Sigma,) and 5 mg/ml 2-phospho-L-abscorbic acid trisodium salt (Millipore Sigma, Cat No. 49752-10G) for 3 days. Slices of tissue were flatly grown in the tissue culture inserts with 0.4 μm pores of a 12-well plate (StemCell Technologies, Cat No. 1001027), supplemented with 100 μl culture media in the apical side containing PCLSs, and 900 μL culture media in the basal compartment. Media were changed every 48 hours. hPCLS were treated and randomly assigned in replicates of 6-8 per condition 7 days after recovery from cryopreservation. […] IPF donor PCLS were collected at day 8 for subsequent RNA isolation and gene expression quantification. […]

| SMILES | IC50 [1] [nM] | collagen (COL1A1) mRNA expression [2] |
| --- | --- | --- |
| CS(=O)(=O)c1ccc(-c2nc3sc4c(O)c(Cl)ccc4c3c(=O)n2Cc2cnc(C(F)(F)F)nc2)c(C2CC2)c1 [Example 64, 7-chloro-2-(2-cyclopropyl-4-(methylsulfonyl)phenyl)-8-hydroxy-3-((2-(trifluoromethyl)pyrimidin-5-yl)methyl)benzo[4,5]thieno[2,3-d]pyrimidin-4(3H)-one] | < 100 | decreased |
| COc1ccc(-c2nc3sc4c(O)c(Cl)ccc4c3c(=O)n2Cc2cnco2)c(C2CC2)c1 [Example 26, 7-chloro-2-(2-cyclopropyl-4-methoxyphenyl)-8-hydroxy-3-(oxazol-5-ylmethyl)benzo[4,5]thieno[2,3-d]pyrimidin-4(3H)-one] | < 100 | decreased |
